Measurements: patent publication US5464848A, “1,2,4-oxadiazolyl-phenoxyalkylisoxazoles and their use as antiviral agents” (Sterling Winthrop Inc., priority 1993, dated 1995)
Values after ≈ are worked out from the molar mass of the structure shown.

Tested on: human rhinovirus (HRV) serotypes, panel T
Experiment: MIC50/MIC80 over panel T of fifteen human rhinovirus serotypes (HeLa cell CPE)
Type: cell-based
Details: for MIC50: Human rhinovirus sp., 72 h, minimum concentration required to inhibit 50% of the tested serotypes; for MIC80: minimum concentration required to inhibit 80% of the tested serotypes
Description: They are useful in inhibiting virus replication in vitro and are primarily active against picornaviruses, including enteroviruses, echovirus and coxsackie virus, especially rhinoviruses. […] The test procedure used was as follows: The MIC values were determined by an automated tissue culture infectious dose 50% (TCID-50) assay. HeLa cells in monoloyers in 96-well cluster plates were infected with a dilution of virus which had been shown empirically to produce 80% to 100% cytopathic effect (CPE) in 3 days in the absence of drug. The compound to be tested was serially diluted through 10, 2-fold cycles and added to the infected cells. After a 3 day incubation at 33° C. and 2.5% carbon dioxide, the cells were fixed with a 5% solution of glutaraldehyde followed by staining with a 0.25% solution of crystal violet in water. The plates were then rinsed, dried, and the amount of stain remaining in the well (a measure of intact cells) was quantitated with an optical density reader. The MIC was determined to be the concentration of compound which protected 50% of the cells from virus-induced CPE relative to an untreated virus control.
In the above test procedures, representative compounds of formula I were tested against some the serotypes from either a panel of fifteen human rhinovirus (HRV) serotypes, (noted in the table as panel T) namely, HRV-2, -14, -1A, -1B, -6, -21, -22, -15, -25, -30, -50, -67, -89, -86 and -41 or against some of the serotypes from a panel of 10 human rhinovirus serotypes namely HRV-3, -4, -5, -9, -16, -18, -38, -66, -75 and -61, (noted in the table as panel B) and the MIC value, expressed in micrograms per milliliter ([…]), for each rhinovirus serotype was determined for each virus, example 1e is given as an example of the data. Then MIC50 and MIC80 values, which are the minimum concentrations of the compound required to inhibit 50% and 80%, respectively, of the tested serotypes were determined.
The following Table gives the test results for representative compounds of the invention. The panel of viruses used in the test appears before the MIC80 and MIC50 figure and the number of serotypes which the compound is tested against (N) is indicated after the MIC80 and MIC50 figure.

Structure (SMILES)	MIC50	MIC80
Cc1cc(CCCOc2c(C)cc(-c3noc(C(F)F)n3)cc2C)on1 [Example 14, 5-{3-[4-(5-Difluoromethyl-1,2,4-oxadiazol-3-yl)-2,6-dimethyl-phenoxy]propyl}-3-methylisoxazole]	0.054 µg/mL (≈ 0.149 µM)	0.022 µg/mL (≈ 0.0605 µM)
Cc1cc(CCCOc2c(C)cc(-c3noc(N(C)C)n3)cc2C)on1 [Example 19, 5-{3-[2,6-Dimethyl-4-(5-dimethylamino-1,2,4-oxadiazol-3-yl)-phenoxy]propyl}-3-methylisoxazole]	0.285 µg/mL (≈ 0.8 µM)	0.085 µg/mL (≈ 0.238 µM)
Cc1cc(CCCOc2c(Cl)cc(-c3noc(C(F)(F)F)n3)cc2C#N)on1 [Example 61e, 5-{3-[4-(5-Trifluoromethyl-1,2,4-oxadiazol-3-yl)2-cyano-6-chlorophenoxy]-propyl}-3-methylisoxazole]	0.706 µg/mL (≈ 1.71 µM)	0.3355 µg/mL (≈ 0.813 µM)
CCOC(=O)c1cc(CCCOc2c(C)cc(-c3noc(C(F)(F)F)n3)cc2C)on1 [Example 56d, 5-{3-[2,6-Dimethyl-4-(5-trifluoromethyl-1,2,4-oxadiazol-3-yl)phenoxy]propyl}-3-(ethoxycarbonyl)isoxazole]	1.47 µg/mL (≈ 3.33 µM)	0.634 µg/mL (≈ 1.44 µM)
Cc1cc(CCCOc2c(C)cc(-c3noc(CI)n3)cc2C)on1 [Example 41, 5-{3-[2,6-Dimethyl-4-(5-(iodomethyl)-1,2,4-oxadiazol-3-yl) -phenoxy]propyl}-3-methylisoxazole]	99 µg/mL (≈ 218 µM)	99 µg/mL (≈ 218 µM)
Cc1cc(CCCOc2c(C)cc(-c3noc(CC(F)(F)F)n3)cc2C)on1 [Example 43, 5-{3-[2,6-Dimethyl-4-(5-(2,2,2-trifluoroethyl)-1,2,4-oxadiazol-3-yl)phenoxy]propyl}-3-methylisoxazole]	99 µg/mL (≈ 250 µM)	99 µg/mL (≈ 250 µM)
COCc1cc(CCCOc2c(C)cc(-c3noc(C(F)(F)F)n3)cc2C)on1 [Example 21, 5-{3-[2,6-Dimethyl-4-(5-trifluoromethyl-1,2,4-oxadiazol-3-yl)phenoxy]propyl}-3-(methoxymethyl) -isoxazole]	1.56 µg/mL (≈ 3.8 µM)	0.0575 µg/mL (≈ 0.14 µM)
Cc1cc(CCCOc2c(C)cc(-c3nc(C(F)(F)F)no3)cc2C)on1 [Example 46c]	0.197 µg/mL (≈ 0.517 µM)	0.1 µg/mL (≈ 0.262 µM)
CC(=O)OC(C)c1nc(-c2cc(C)c(OCCCc3cc(C)no3)c(C)c2)no1 (stereo not shown) [Example 11, 5-{3-[2,6-Dimethyl-4-(5-(1-methylcarbonyloxy-ethyl)-1,2,4-oxadiazol-3-yl)phenoxy]propyl}-3-methylisoxazole]	1.98 µg/mL (≈ 4.97 µM)	0.2485 µg/mL (≈ 0.622 µM)
Cc1cc(CCCOc2c(C)cc(-c3noc(C#N)n3)cc2C)on1 [Example 39, 5-{3-[4-(5-Cyano-1,2,4-oxadiazol-3-yl)-2,6-dimethylphenoxy]-propyl}-3-methylisoxazole]	99 µg/mL (≈ 293 µM)	1.848 µg/mL (≈ 5.46 µM)
Cc1cc(CCCOc2c(C)cc(-c3noc(C(Cl)Cl)n3)cc2C)on1 [Example 13, 5-{3-[4-(5-Dichloromethyl-1,2,4-oxadiazol-3-yl)-2,6-dimethyl-phenoxy]propyl}-3-methylisoxazole]	0.266 µg/mL (≈ 0.671 µM)	0.145 µg/mL (≈ 0.366 µM)
Cc1cc(CCCOc2c(C)cc(-c3noc(C4CC4)n3)cc2C)on1 [Example 4, 5-{3-[4-(5-Cyclopropyl-1,2,4-oxadiazol-3-yl) -2,6-dimethylphenoxy]propyl}-3-methylisoxazole]	3.15 µg/mL (≈ 8.9 µM)	0.057 µg/mL (≈ 0.161 µM)
COCc1nc(-c2cc(C)c(OCCCc3cc(C)no3)c(C)c2)no1 [Example 5, 5-{3-[2,6-Dimethyl-4-(5-methoxymethyl-1,2,4-oxadiazol-3-yl)phenoxy]propyl}-3-methylisoxazole]	0.153 µg/mL (≈ 0.428 µM)	0.037 µg/mL (≈ 0.104 µM)
Cc1cc(CCCOc2ccc(-c3noc(C4CCC4)n3)cc2)on1 [Example 54e, 5-{3-[4-(5-cyclobutyl-1,2,4-oxadiazol-3-yl)phenoxy]propyl}-3-methylisoxazole]	99 µg/mL (≈ 292 µM)	0.1045 µg/mL (≈ 0.308 µM)
Cc1cc(CCCOc2ccc(-c3noc(C(F)(F)F)n3)cc2)on1 [Example 32c, 3-Methyl-5-{3-[4-(5-trifluoromethyl-1,2,4-oxadiazol-3-yl) -phenoxy]propyl}isoxazole]	99 µg/mL (≈ 280 µM)	2.86 µg/mL (≈ 8.1 µM)
CCOCc1cc(CCCOc2c(C)cc(-c3noc(C(F)(F)F)n3)cc2C)on1 [Example 22, 5-{3-[2,6-Dimethyl-4-(5-trifluoromethyl-1,2,4-oxadiazol-3-yl)phenoxy]propyl}-3-(ethoxymethyl)-isoxazole]	0.729 µg/mL (≈ 1.71 µM)	0.087 µg/mL (≈ 0.205 µM)

Structure (SMILES)	MIC50	MIC80
Cc1cc(CCCOc2c(C)cc(-c3nc(N)no3)cc2C)on1 [Example 47]	5.14 µg/mL (≈ 15.7 µM)	0.057 µg/mL (≈ 0.174 µM)
Cc1cc(-c2noc(C3CC3)n2)cc(C)c1OCCCc1cc(O)no1 [Example 36d, 5-{3-[4-(5-cyclopropyl-1,2,4-oxadiazol-3-yl)-2,6-dimethylphenoxy]propyl}-3-hydroxyisoxazole]	1.32 µg/mL (≈ 3.72 µM)	0.371 µg/mL (≈ 1.04 µM)
Cc1cc(-c2noc(C3CC3)n2)cc(C)c1OCCCc1cc(OCCO)no1 [Example 44, 5-{3-[4-(5-Cyclopropyl-1,2,4-oxadiazol-3-yl)-2,6-dimethylphenoxy]propyl}-3-(2-hydroxyethoxy)isoxazole]	–	0.385 µg/mL (≈ 0.964 µM)
Cc1cc(CCCOc2c(C)cc(-c3noc(=O)[nH]3)cc2C)on1 [Example 8, 5-{3-[2,6-Dimethyl-4-(5-oxo-4,5-dihydro-1,2,4-oxadiazol-3-yl)phenoxy]propyl}-3-methylisoxazole]	99 µg/mL (≈ 301 µM)	99 µg/mL (≈ 301 µM)
Cc1cc(CCCCCOc2c(Cl)cc(-c3noc(C(F)(F)F)n3)cc2Cl)on1 [Example 31c, 5-{5-[2,6-Dichloro-4-(5-trifluoromethyl-1,2,4-oxadiazol-3-yl)-phenoxy]pentyl}-3-methylisoxazole]	99 µg/mL (≈ 220 µM)	0.533 µg/mL (≈ 1.18 µM)
CCOC(=O)c1nc(-c2cc(C)c(OCCCc3cc(C)no3)c(C)c2)no1 [Example 7, 5-{3-[2,6-Dimethyl-4-(5-ethoxycarbonyl-1,2,4-oxadiazol-3-yl)phenoxy]propyl}-3-methylisoxazole]	99 µg/mL (≈ 257 µM)	99 µg/mL (≈ 257 µM)
Cc1cc(-c2noc(C(F)(F)F)n2)cc(C)c1OCCCc1cc(C2CC2)no1 [Example 23, 3-Cyclopropyl-5-{3-[2,6-dimethyl-4-(5-trifluoromethyl-1,2,4-oxadiazol-3-yl)phenoxy]propyl}-isoxazole]	0.625 µg/mL (≈ 1.53 µM)	0.204 µg/mL (≈ 0.501 µM)
CCOc1cc(CCCOc2c(C)cc(-c3noc(C4CC4)n3)cc2C)on1 [Example 37, 5-{3-[4-(5-Cyclopropyl-1,2,4-oxadiazol-3-yl)-2,6-dimethyl-phenoxy]propyl}-3-ethoxyisoxazole]	0.352 µg/mL (≈ 0.918 µM)	0.91 µg/mL (≈ 2.37 µM)
CC(=O)OCc1nc(-c2cc(C)c(OCCCc3cc(C)no3)c(C)c2)no1 [Example 9, 5-{3-[2,6-Dimethyl-4-(5-methylcarbonyloxy-methyl-1,2,4-oxadiazol-3-yl)phenoxy]propyl}-3-methylisoxazole]	0.279 µg/mL (≈ 0.724 µM)	0.141 µg/mL (≈ 0.366 µM)
Cc1cc(-c2noc(C3CC3)n2)cc(C)c1OCCCc1cc(C2CC2)no1 [Example 27]	0.142 µg/mL (≈ 0.374 µM)	0.087 µg/mL (≈ 0.229 µM)
Cc1cc(CCCOc2c(C)cc(-c3noc(C(N)=O)n3)cc2C)on1 [Example 38, 5-{3-[4-(5-Aminocarbonyl-1,2,4-oxadiazol-3-yl)-2,6-dimethyl-phenoxy]propyl}-3-methylisoxazole]	99 µg/mL (≈ 278 µM)	0.839 µg/mL (≈ 2.35 µM)
COc1nc(-c2cc(C)c(OCCCc3cc(C)no3)c(C)c2)no1 [Example 16, 5-{3-[2,6-Dimethyl-4-(5-methoxy-1,2,4-oxadiazol-3-yl)phen-oxy]propyl}-3-methylisoxazole]	0.135 µg/mL (≈ 0.393 µM)	0.036 µg/mL (≈ 0.105 µM)
Cc1ccc(S(=O)(=O)OCc2nc(-c3cc(C)c(OCCCc4cc(C)no4)c(C)c3)no2)cc1 [Example 42, 5-{3-[2,6-Dimethyl-4-(5-(4-methylphenylsulfonyloxymethyl) -1,2,4-oxadiazol-3-yl)phenoxy]propyl}-3-methylisoxazole]	99 µg/mL (≈ 199 µM)	99 µg/mL (≈ 199 µM)
Cc1cc(-c2noc(C3CC3)n2)cc(C)c1OCCCc1cc(CO)no1 [Example 39c, 5-{3-[4-(5-Cyclopropyl-1,2,4-oxadiazol-3-yl)-2,6-dimethylphenoxy]propyl}-3-(hydroxymethyl) isoxazole]	0.187 µg/mL (≈ 0.506 µM)	0.035 µg/mL (≈ 0.0947 µM)
Cc1cc(CCCOc2c(C)cc(-c3noc(=N)[nH]3)cc2C)on1 [Example 15, 5-{3-[4-(5-Imino-4,5-dihydro-1,2,4-oxadiazol-3-yl)-2,6-dimethylphenoxy]propyl}-3-methylisoxazole]	99 µg/mL (≈ 301 µM)	99 µg/mL (≈ 301 µM)
